The values that follow come from paper PMC3267002 (Bioorganic & medicinal chemistry, 2011).

One assay addresses T1, D4 receptor (Homo sapiens, UniProt P21917).
T1 sequence (P21917 1-419): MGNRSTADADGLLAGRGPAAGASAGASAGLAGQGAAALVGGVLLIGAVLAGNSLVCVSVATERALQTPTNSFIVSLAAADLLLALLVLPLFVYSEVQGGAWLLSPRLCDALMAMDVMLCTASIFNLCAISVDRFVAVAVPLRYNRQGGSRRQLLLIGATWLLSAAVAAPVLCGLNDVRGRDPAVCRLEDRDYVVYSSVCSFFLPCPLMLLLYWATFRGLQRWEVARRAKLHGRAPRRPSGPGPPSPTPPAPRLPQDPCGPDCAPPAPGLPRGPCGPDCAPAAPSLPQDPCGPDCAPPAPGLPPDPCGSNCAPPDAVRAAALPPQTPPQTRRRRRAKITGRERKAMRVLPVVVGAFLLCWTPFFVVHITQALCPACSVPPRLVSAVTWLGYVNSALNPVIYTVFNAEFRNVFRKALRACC
As to the kind of experiment: NIMH-PDSP radioligand binding, D4. The note with it: compared to the methylene analog (so in the source).

In another assay the target is T2, 5HT2C receptor (Homo sapiens, UniProt P28335).
T2 sequence (P28335 33-458): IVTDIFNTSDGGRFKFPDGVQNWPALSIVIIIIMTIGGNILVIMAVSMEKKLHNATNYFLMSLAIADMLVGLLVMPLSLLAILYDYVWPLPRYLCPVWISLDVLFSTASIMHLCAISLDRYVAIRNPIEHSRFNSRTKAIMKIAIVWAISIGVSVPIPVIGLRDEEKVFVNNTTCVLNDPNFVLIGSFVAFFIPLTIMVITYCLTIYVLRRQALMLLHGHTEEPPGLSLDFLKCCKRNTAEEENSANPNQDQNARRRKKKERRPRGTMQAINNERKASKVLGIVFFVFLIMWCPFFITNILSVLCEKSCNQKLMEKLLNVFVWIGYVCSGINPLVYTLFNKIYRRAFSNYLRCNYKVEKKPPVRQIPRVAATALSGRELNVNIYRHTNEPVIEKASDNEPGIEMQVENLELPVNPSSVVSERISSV
As to the kind of experiment: NIMH-PDSP radioligand binding, 5HT2C.

Another assay deals with T3, 5HT1A receptor (Homo sapiens, UniProt P08908).
T3 sequence (P08908 1-422): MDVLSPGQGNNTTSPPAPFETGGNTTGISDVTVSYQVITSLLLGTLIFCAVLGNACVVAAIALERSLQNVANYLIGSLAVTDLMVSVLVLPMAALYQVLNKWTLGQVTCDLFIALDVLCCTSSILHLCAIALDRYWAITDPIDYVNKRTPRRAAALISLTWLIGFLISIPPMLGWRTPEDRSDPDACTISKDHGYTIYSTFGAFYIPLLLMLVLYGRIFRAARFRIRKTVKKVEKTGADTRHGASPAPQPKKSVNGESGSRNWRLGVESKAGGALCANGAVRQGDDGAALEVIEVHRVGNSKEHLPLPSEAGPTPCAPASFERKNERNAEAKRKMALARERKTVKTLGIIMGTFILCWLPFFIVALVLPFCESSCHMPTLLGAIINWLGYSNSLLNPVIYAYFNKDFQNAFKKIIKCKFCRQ
As to the kind of experiment: NIMH-PDSP radioligand binding, 5HT1A. The note with it: compound 15 as the template.

The target in a further assay is D2 receptor (Homo sapiens, UniProt P14416). The experiment in a line: NIMH-PDSP radioligand binding, D2. The note with it: compound 15 as the template.

Structures are written as SMILES. Where a name gives a salt, the structure may show the parent alone.

Sequence of D2 receptor (P14416 whole entry): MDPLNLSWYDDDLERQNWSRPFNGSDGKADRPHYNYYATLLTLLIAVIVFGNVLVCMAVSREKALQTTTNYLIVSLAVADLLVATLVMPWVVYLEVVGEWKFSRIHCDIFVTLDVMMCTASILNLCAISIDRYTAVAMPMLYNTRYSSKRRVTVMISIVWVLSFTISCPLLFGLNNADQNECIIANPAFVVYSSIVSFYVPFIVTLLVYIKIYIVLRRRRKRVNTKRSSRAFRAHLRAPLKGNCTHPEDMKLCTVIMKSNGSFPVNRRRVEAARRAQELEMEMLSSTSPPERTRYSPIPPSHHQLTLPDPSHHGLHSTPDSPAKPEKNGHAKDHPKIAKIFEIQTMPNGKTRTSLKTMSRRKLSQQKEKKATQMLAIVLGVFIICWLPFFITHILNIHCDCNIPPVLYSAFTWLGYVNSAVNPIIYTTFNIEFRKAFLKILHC

For `OC1(c2ccc(Cl)cc2)CCN(CCCSc2ccc(F)cc2)CC1` [Compound 6, 4-(4-chlorophenyl)-1-(3-((4-fluorophenyl)thio)propyl)piperidin-4-ol], the “decrease in binding at the D4 receptor” value at D4 receptor is listed as “over 24 fold”.

Turning to `[O-][S+](CCCN1CCC(c2ccc(Cl)cc2)CC1)c1ccc(F)cc1` (centres unmarked) [Compound 10, 4-(4-Chlorophenyl)-1-(3-((4-fluorophenyl)sulfinyl)propyl)piperidine HCl], the Ki (commonly the equilibrium dissociation constant of an inhibitor or competing ligand from its target) on 5HT2C receptor is more than 10 µM.

The compound `Fc1ccc(SCCCN2CCC(c3ccc(Cl)cc3)CC2)cc1` [Compound 8, 4-(4-Chlorophenyl)-1-(3-((4-fluorophenyl)thio)propyl)piperidine hydrochloride] returned a Ki on 5HT2C receptor of more than 10 µM.

Turning to `Fc1ccc(OCCCN2CCN(c3ncccn3)CC2)cc1` [Compound 22, 2-(4-(3-(4-Fluorophenoxy)propyl)piperazin-1-yl)pyrimidine], the Ki on 5HT2C receptor is more than 10 µM.

`OC1(c2ccc(Cl)cc2)CCN(CCCOc2ccc(F)cc2)CC1` [Compound 7, 4-(4-Chloro-phenyl)-1-[3-(4-fluoro-phenoxy)-propyl]-piperidin-4-ol]: on D4 receptor, the “increase in binding at the D4 receptor” value is listed as “over 4 fold”.

At 5HT2C receptor, `Fc1ccc(OCCCN2CCC(c3ccc(Cl)cc3)CC2)cc1` [Compound 9, 4-(4-Chlorophenyl)-1-(3-(4-fluorophenoxy)propyl)piperidine] had an inhibition constant Ki of more than 10 µM.

As for `Clc1ccc(N2CCN(CCCOc3ccccc3)CC2)cc1` [Compound 17, 1-(4-Chlorophenyl)-4-(3-phenoxypropyl)piperazine HCl], the “binding increased by a factor, 5HT1A receptor” value at 5HT1A receptor is 3.

Consider `Fc1ccc(OCCCN2CCN(c3ccccc3)CC2)cc1` [Compound 16, 1-(3-(4-Fluorophenoxy)propyl)-4-phenylpiperazine], for which, on D2 receptor, the “increase in binding at the D2 receptor” value is “over 10 fold”.
